Data as given in ChEMBL document CHEMBL5380790 (J Med Chem, 2023).
Active and inactive are the calls of the source. The rule behind the calls is not given here.

Tests used:
[1] = target: T1, Mast/stem cell growth factor receptor Kit (Homo sapiens, UniProt P10721); experiment: Inhibition of wild type KIT (unknown origin) using 33P-ATP as substrate incubated for 120 mins by radiometric kinase assay
Target sequence in this assay (P10721 whole entry): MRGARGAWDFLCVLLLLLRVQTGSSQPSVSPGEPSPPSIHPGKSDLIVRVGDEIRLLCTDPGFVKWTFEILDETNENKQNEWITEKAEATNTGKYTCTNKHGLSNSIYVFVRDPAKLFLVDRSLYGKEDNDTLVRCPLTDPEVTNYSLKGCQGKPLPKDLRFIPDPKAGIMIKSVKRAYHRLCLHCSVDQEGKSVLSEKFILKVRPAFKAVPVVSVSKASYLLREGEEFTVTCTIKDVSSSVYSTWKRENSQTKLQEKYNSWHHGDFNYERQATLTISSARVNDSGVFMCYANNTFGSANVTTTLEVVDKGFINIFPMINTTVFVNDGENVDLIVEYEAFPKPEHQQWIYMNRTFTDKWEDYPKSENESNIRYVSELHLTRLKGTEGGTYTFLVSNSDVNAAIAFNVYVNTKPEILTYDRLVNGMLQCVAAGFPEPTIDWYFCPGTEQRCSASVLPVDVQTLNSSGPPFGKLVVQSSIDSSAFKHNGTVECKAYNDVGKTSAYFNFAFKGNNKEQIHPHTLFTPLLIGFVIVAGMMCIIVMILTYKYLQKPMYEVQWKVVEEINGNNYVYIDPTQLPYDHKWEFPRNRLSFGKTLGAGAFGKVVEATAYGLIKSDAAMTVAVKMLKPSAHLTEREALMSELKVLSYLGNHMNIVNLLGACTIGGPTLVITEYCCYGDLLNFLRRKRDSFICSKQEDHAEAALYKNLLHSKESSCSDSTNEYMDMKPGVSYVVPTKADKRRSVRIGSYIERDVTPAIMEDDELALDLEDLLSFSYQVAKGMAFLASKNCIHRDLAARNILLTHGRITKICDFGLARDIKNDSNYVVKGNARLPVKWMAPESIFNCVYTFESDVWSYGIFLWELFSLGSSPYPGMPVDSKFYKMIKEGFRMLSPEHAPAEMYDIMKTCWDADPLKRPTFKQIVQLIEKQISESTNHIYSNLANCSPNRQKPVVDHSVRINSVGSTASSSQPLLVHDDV

[2] = Volume of distribution at steady state in Han Wistar rat at 0.2 mg/kg, iv and measured upto 24 hrs; assay type: ADME, organism-based; details: in vivo, read-out: Vdss
[3] = target: Platelet-derived growth factor receptor beta (Homo sapiens, UniProt P09619); experiment: Inhibition of PDGFRB (unknown origin) using 33P-ATP as substrate incubated for 120 mins by radiometric kinase assay
[4] = target: T2, Tyrosine-protein kinase Lck (Homo sapiens, UniProt P06239); experiment: Inhibition of LCK (unknown origin) using 33P-ATP as substrate incubated for 120 mins by radiometric kinase assay
Target sequence in this assay (P06239 whole entry): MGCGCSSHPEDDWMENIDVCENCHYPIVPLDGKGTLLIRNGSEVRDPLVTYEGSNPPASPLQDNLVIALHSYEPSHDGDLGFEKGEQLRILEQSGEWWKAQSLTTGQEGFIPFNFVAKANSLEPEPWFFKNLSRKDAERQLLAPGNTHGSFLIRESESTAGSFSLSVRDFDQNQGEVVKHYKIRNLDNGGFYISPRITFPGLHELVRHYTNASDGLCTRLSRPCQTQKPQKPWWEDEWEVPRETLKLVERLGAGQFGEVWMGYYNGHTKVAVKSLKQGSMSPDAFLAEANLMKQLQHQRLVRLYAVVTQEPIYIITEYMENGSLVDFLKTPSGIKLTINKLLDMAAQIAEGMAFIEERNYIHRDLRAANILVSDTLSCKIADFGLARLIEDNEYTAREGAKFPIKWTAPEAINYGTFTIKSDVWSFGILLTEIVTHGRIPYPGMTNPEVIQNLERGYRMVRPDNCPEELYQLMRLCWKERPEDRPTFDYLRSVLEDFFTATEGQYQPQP

[5] = target: Macrophage colony-stimulating factor 1 receptor (Homo sapiens, UniProt P07333); experiment: Inhibition of CSF1R (unknown origin) at 1 uM using 33P-ATP as substrate incubated for 120 mins by radiometric kinase assay
[6] = Plasma clearance in Han Wistar rat at 0.2 mg/kg, iv and measured upto 24 hrs; assay type: ADME, organism-based
[7] = Oral bioavailability in Cynomolgus monkey at 5 mg/kg and measured upto 24 hrs; assay type: ADME, organism-based, Macaca fascicularis; details: in vivo
[8] = Half life in Beagle dog at 0.2 mg/kg, iv and measured upto 24 hrs; assay type: ADME, organism-based, Canis lupus familiaris; details: in vivo
[9] = target: T1, Mast/stem cell growth factor receptor Kit; assay type: cell-based; details: gist430
Target sequence in this assay (P10721 26-976 limits assumed, stated change not applied): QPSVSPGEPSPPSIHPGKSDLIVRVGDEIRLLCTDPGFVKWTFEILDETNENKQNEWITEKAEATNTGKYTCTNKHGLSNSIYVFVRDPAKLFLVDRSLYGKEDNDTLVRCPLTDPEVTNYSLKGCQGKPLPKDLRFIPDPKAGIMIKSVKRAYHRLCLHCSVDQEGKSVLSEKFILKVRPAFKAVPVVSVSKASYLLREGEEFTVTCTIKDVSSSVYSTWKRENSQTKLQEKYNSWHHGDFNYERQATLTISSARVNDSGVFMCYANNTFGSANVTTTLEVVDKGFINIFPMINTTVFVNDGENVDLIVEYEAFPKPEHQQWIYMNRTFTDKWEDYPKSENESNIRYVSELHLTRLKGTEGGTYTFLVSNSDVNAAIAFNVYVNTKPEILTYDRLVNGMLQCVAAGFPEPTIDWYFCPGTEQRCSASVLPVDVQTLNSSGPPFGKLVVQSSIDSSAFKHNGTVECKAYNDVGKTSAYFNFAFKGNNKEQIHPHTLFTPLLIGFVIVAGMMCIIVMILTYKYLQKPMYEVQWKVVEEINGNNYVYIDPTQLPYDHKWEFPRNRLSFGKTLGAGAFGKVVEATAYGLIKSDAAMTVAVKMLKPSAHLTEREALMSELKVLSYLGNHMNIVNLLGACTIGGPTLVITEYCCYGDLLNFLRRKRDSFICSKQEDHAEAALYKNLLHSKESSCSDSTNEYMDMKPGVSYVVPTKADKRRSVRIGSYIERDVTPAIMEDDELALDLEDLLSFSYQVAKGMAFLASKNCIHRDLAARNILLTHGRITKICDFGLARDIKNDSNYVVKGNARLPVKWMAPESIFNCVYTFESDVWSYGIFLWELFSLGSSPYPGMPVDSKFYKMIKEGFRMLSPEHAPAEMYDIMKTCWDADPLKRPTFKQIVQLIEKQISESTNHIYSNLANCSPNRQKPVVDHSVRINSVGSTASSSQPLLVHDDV

[10] = tested on: Mast/stem cell growth factor receptor Kit (Homo sapiens), P10721 [UNDEFINED MUTATION]; experiment: Inhibition of recombinant human KIT (557 to 558 residues) activating deletion mutant in exon 11 using polyGT and ATP as substrate preincubated for 20 mins followed by substrate addition and measured after 240 mins by FRET assay; details: time 260.0 min
[11] = target: Receptor-type tyrosine-protein kinase FLT3 (Homo sapiens) (UniProt P36888); experiment: Binding affinity to human FLT3 in human HEK293 cells at 1 uM by NanoBRET assay; assay type: cell-based
[12] = Volume of distribution at steady state in CD-1 mouse at 0.2 mg/kg, iv and measured upto 24 hrs; assay type: ADME, organism-based; details: in vivo, read-out: Vdss
[13] = target: T2, Tyrosine-protein kinase Lck; experiment: Inhibition of LCK (unknown origin) at 1 uM using 33P-ATP as substrate incubated for 120 mins by radiometric kinase assay
Target sequence in this assay (P06239 2-509 limits assumed): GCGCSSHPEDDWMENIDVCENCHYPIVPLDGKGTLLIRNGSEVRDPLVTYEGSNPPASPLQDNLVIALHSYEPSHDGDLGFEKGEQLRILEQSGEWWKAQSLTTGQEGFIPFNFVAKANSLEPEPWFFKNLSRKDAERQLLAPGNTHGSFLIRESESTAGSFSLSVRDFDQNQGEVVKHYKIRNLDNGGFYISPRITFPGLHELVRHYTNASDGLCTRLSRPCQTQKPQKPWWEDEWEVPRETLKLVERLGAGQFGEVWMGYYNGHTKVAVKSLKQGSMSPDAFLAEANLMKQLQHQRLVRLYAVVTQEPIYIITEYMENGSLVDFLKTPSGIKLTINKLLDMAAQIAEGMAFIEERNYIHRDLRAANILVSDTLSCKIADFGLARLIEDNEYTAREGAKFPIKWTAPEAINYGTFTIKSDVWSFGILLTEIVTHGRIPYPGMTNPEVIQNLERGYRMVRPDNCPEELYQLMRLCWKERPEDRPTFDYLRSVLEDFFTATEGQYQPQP

GIST-430/654 [14] = assay type: functional, organism-based; details: Homo sapiens, dose 35.0 mg/kg, route po, time 30.0 day
[15] = Oral biovailability in Han Wistar rat at 30 mg/kg and measured upto 24 hrs; assay type: ADME, organism-based; details: in vivo
[16] = target: T1, Mast/stem cell growth factor receptor Kit; experiment: Inhibition of wild type KIT (unknown origin) at 1 uM using 33P-ATP as substrate incubated for 120 mins by radiometric kinase assay
Target sequence in this assay (P10721 whole entry): as the sequence (P10721 whole entry) above

[17] = Oral bioavailability in Beagle dog at 20 mg/kg and measured upto 24 hrs; assay type: ADME, organism-based, Canis lupus familiaris; details: in vivo
[18] = target: hERG (KCNH2) potassium channel (Homo sapiens, UniProt Q12809); experiment: Inhibition of human ERG potassium channel transfected in HEK293 cells at holding potential -80 mV at 10 uM and measured for 5 mins by whole cell patch clamp assay; assay type: toxicity, cell-based; details: HEK293 cells transfected with hERG
GIST-430/654 [19] = assay type: functional, organism-based; details: Homo sapiens, dose 10-35 mg/kg, route po, time 30.0 day
[20] = target: Receptor-type tyrosine-protein kinase FLT3 (Homo sapiens) (UniProt P36888); experiment: Inhibition of FLT3 (unknown origin) at 1 uM using 33P-ATP as substrate incubated for 120 mins by radiometric kinase assay

Sequence of Receptor-type tyrosine-protein kinase FLT3 (Homo sapiens) (P36888 whole entry): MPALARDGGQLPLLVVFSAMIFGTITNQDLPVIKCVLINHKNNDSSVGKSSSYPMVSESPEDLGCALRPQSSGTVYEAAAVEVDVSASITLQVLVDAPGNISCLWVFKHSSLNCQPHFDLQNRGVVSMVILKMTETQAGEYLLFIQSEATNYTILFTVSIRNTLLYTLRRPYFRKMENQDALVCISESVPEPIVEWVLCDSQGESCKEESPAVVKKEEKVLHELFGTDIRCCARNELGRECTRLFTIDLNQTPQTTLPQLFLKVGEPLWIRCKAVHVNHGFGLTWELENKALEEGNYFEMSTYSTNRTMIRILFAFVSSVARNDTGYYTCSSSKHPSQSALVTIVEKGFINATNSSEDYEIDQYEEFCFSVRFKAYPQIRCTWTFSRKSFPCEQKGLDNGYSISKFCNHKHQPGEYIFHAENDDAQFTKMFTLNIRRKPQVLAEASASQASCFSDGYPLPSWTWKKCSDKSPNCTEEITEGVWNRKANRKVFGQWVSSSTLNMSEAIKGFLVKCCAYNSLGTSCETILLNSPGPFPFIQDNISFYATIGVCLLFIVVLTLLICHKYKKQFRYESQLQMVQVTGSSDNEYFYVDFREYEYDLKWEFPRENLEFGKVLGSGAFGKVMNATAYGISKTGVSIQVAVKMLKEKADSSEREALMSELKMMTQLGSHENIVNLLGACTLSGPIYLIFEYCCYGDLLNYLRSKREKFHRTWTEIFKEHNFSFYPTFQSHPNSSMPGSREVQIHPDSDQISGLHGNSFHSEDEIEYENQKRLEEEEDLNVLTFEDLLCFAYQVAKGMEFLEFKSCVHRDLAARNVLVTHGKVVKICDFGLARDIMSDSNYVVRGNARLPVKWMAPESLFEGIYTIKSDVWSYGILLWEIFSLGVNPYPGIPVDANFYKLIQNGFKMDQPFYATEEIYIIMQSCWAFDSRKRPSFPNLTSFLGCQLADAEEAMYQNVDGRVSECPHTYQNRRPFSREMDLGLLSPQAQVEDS
Sequence of Macrophage colony-stimulating factor 1 receptor (P07333 whole entry): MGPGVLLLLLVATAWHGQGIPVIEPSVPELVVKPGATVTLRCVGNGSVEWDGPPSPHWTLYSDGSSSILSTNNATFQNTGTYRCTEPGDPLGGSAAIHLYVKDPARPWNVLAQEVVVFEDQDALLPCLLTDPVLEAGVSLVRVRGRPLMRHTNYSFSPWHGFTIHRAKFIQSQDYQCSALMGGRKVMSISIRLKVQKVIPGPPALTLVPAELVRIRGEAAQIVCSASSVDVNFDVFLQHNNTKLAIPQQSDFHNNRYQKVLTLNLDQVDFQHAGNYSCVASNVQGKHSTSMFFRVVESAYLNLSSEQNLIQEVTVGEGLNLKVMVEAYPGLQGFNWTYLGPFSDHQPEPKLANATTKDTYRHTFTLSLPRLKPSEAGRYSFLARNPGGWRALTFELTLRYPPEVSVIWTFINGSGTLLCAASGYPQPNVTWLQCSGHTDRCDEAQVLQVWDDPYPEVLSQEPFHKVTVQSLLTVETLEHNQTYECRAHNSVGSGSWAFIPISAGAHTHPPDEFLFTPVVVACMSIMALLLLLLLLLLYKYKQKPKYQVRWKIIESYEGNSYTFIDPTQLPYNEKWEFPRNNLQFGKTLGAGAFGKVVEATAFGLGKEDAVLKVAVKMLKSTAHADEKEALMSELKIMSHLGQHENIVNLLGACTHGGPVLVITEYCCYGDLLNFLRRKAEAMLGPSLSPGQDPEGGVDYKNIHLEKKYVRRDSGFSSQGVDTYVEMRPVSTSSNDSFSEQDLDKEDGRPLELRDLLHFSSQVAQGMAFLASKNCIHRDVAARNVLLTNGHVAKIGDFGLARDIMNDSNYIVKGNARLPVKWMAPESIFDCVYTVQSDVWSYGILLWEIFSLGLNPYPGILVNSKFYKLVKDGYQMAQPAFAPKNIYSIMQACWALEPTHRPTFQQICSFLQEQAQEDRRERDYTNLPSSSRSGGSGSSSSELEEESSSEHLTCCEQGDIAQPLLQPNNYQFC
Sequence of Mast/stem cell growth factor receptor Kit (Homo sapiens), P10721 [UNDEFINED MUTATION] (P10721 whole entry, looked up, stated change not applied, the tested form may be a part): as the sequence (P10721 whole entry) above

IC50 [1]: 44 nM
Vd [2]: 23.2 L/kg
IC50 [3]: 2.6 nM
IC50 [4]: 141 nM
inhibition [5]: > 80%
clearance [6]: 36.7 mL/min/kg
bioavailability [7]: 31%
half-life [8]: 9.6 h
IC50 [9]: 4 nM
inhibition [10]: Active
Activity [11]: 45%
Vd [12]: 11 L/kg
inhibition [13]: > 80%
bioavailability [15]: 63%
inhibition [16]: > 80%
bioavailability [17]: 80%
inhibition [20]: > 80%
SMILES: Cn1cc(-c2ccc(CNc3cc(-c4cnc5cc(OCCCN6CCCC6)ccn45)ncn3)cc2)cn1 [IDRX-42]
Activity (GIST-430/654 [14]): Active
inhibition at 5 min, 10 µM [18]: -86%
inhibition (GIST-430/654 [19]): Dose-Dependent Effect
